Reference: patent US10278971B2, “Fluorocyclopentenylcytosine methods of use” (Rexahn Pharmaceuticals, Inc., priority 2015, dated 2019)

Columns and labels:
Type in all cases: cell-based, human
[1] = system: DNMT1; assay: DNMT enzyme activity in isolated nuclei (DNA methyltransferase assay kit); settings: A2780 nuclear extracts, 5 μM, 24 hr
Protocol: (§1) DNMT1 protein expression was measured by Western Blotting after exposure to RX-3117 for 24 or 48 hr. DNMT1 RNA expression was measured by real-time PCR after 24 and 48 hr exposure to RX-3117. DNMT enzyme activity was measured in isolated nuclei after exposure 1 μM RX-3117 or 5 μM aza-CdR using a DNA methyltransferase assay kit provided by EpiGentek using the ability of a CpG dinding domain to bind to methylated DNA. In A549 cells the effect of 5 μM RX-3117 on overall methylation was measured with a specific antibody against 5-methyl-cytosine. Bands on Western blots were visualized using appropriate InfraRedDye using an Odyssey InfraRed imager.

[2] = system: overall methylation of DNA; assay: Overall methylation of DNA with antibody against 5-methyl-cytosine; settings: A549, 5 μM, 48 hr exposure
Protocol: as §1

[3] = system: PCFT; assay: PCFT mediated transport of radiolabeled MTX; settings: CEM cells, 24 hr; RX-3117 29.6 μM; DAC positive control
Source text: In this study, the following cell lines were used: (1) CCRF-CEM cells and its MTX resistant variant CEM-MTX, characterized by a deficiency of the reduced folate carrier (RFC) (Jansen G., et al., JBC 273 (1998) 30189-30198). The PCFT gene in CEM cells is highly methylated. (Gonen N., et al., BBRC 376 (2008) 787-92.); (2) CEM cells cultured in RPMI medium with 10% fetal bovine serum (FBS); and (3) A549 and SW1573 non-small cell lung cancer (NSCLC) and A2780 ovarian cancer cell lines cultured in DMEM medium with 10% FBS.
MTX transport was measured using radiolabeled MTX in CEM wild type and CEM-MTX cell lines. CEM cells have a high RFC activity. CEM-MTX are completely deficient in RFC-mediated transport. CEM cells have a highly methylated PCFT transporter and a very low PCFT mediated transport (Gonen N., et al., BBRC 376 (2008) 787-92). MTX transport at pH 7.4 is predominantly RFC mediated and less than 2% by PCFT. Folic acid was used to inhibit PCFT mediated transport. […] CEM and CEM-MTX cells were exposed to 29.6 μM RX-3117 and to 0, 19 μM aza-CdR as a positive control. MTX transport was measured after 24 hr to the drugs in a 3 minutes uptake assay using 2 μM [3′,5,′7-3H]-MTX.

Nc1ncn([C@H]2C[C@H](O)[C@@H](CO)O2)c(=O)n1 [DAC, 5-aza-2′-deoxycytidine, reference compound]
inhibition of DNMT1 activity [1]: 31% | decrease of overall methylation of DNA [2]: 9% | increase of PCFT mediated transport of MTX [3]: 4 fold
